From patent publication US20250221950A1, “GABA-CONTAINING COMPOSITION” (priority 2021, published 2025)
“Also recorded” adds a separate entry of the source. Ends that are not written are not given here.

Assays:
[1] = system: Healthy C57BL/6J male mice; test: Food intake after glucose, fructose, isomerized sugar with or without GABA (Example 8, FIG. 11, 12); assay type: in vivo; conditions: fructose 1 g/kg po alone, compared with control group (saline)
Description: Thereafter, the mice were fed at 10:00 on the test day, and the food intake by free-feeding was measured over time. […] The effect of GABA on the inhibitory action on fructose-induced satiety by glucose was examined. […] Thereafter, the mice were fed at 10:00 on the test day, and the food intake by free-feeding was measured over time.

[2] = system: GLP-1; test: Fructose-induced GLP-1 secretion, portal plasma ELISA (Example 9, FIG. 13); assay type: in vivo, mice
[3] = system: afferent nerves in the hepatic branch of the vagus nerve; conditions: administration into the hepatic portal vein; J Auton Nerv Syst. 1996; cited from earlier work
[4] = system: obese patients; conditions: Bergmann et al. 2019, cited from earlier work
[5] = system: Healthy C57BL/6J male mice; test: Food intake after sucrose with or without GABA (Example 10, FIG. 14); assay type: in vivo
Description: Thereafter, the mice were fed at 10:00 on the test day, and the food intake by free-feeding was measured over time.

[6] = system: C57BL/6J male mice; test: Conditioned taste aversion test (saccharin preference, Example 3, FIG. 3); assay type: in vivo; conditions: lithium chloride 3 mmol/kg intraperitoneal
Description: C57BL/6J male mice reared in individual cages were given two bottles of water only for 2 hours from 10:00 to 12:00 for 5 days, whereby the mice were acclimated to the water restriction schedule. On day 6, a 0.15% saccharin solution was presented for 30 minutes, and thereafter, lithium chloride (3 mmol/kg) was intraperitoneally administered, whereby the mice were made to acquire an aversion to the taste of the saccharin solution (conditioning). In the same manner, a control group to which physiological saline (10 mL/kg) was intragastrically administered and a test group to which GABA (200 mg/kg) was intragastrically administered were prepared. On day 7 serving as a rest day, the above-described water restriction schedule was performed. On day 8 serving as a test day, two bottles of a 0.15% saccharin solution and water were simultaneously presented for 30 minutes, and the preference of the saccharin solution (saccharin intake/total intake of two bottles×100, %) was determined.

[7] = system: subdiaphragmatic vagotomized mice; test: Food intake after intragastric GABA in subdiaphragmatic vagotomized mice (FIG. 1B); assay type: in vivo; conditions: GABA 200 mg/kg intragastric, afferent vagotomy
Description: (§1) In order to examine the involvement of the vagus nerve which is a visceral sensory nerve, the food intake reducing effect by intragastric administration of GABA was examined using sensory nerve disorder model mice by subcutaneous administration of capsaicin or subdiaphragmatic vagotomized mice. The sensory nerve disorder model mice by subcutaneous administration of capsaicin were prepared as follows. 50 mg/kg of capsaicin (5 ml/kg, solution composition: 10% ethanol, 10% Tween 80, 80% physiological saline) was subcutaneously administered to C57BL/6J male mice under tribromoethanol (200 mg/kg, intraperitoneal administration (ip)) anesthesia, and after 2 days, 50 mg/kg of capsaicin was subcutaneously administered under similar anesthesia. Further, after 2 days, 10 mg/kg of capsaicin was intraperitoneally administered under no anesthesia. After a recovery period of 5 to 7 days, an experiment of food intake was performed. In sham operation and subdiaphragmatic vagotomy, surgery was performed on C57BL/6J male mice under tribromoethanol (200 mg/kg, ip) anesthesia. […] All the mice were fasted overnight (16 hours) on the day before the experiment of food intake, then intragastrically administered a single dose of physiological saline or GABA (200 mg/kg) from 9:45, and fed at 10:00, and the food intake by free-feeding was measured over time. […]

[8] = system: GIP; test: Blood total GIP concentration 30 minutes after intragastric administration (Example 5, FIG. 6); assay type: in vivo, mice
Description: (§2) Healthy C57BL/6J male mice were fasted for 16 hours from 18:00 the day before the experiment. At 10:00, various solutions shown in the figure were intragastrically administered (40 ml/kg). Thirty minutes after administration, blood was collected from the portal vein under isoflurane anesthesia. An anticoagulant (heparin (final concentration 50 IU/ml)) and a peptide degradation inhibitor (aprotinin (final concentration 500 KIU/ml) and vildagliptin (final concentration 10 μM)) were added in advance to the sampling syringe. The collected blood was cooled and centrifuged and stored at −80° C. until the obtained plasma was analyzed. The total GIP concentration (A) and the total GLP-1 concentration (B) in the blood were analyzed using ELISA kits (EZGLP1T-36K and EZRMGIP-55K) manufactured by Millipore Corporation.

[9] = system: vagal afferent nerves; test: pERK1/2 immunostaining of nodose ganglion, nucleus tractus solitarius and area postrema (Example 4, FIG. 4, 5); assay type: in vivo, mice; conditions: 30 minutes
Description: C57BL/6J male mice were acclimated to the environment and experimental work by preliminary rearing and handling for 1 week or more in individual cages. […] They were post-fixed, and a frozen section specimen was prepared. Using this frozen section specimen, immunostaining of phosphorylated ERK1/2 (pERK1/2), which is a neural activation marker, was performed, and each organ section was photographed with a fluorescence microscope and analyzed.

[10] = system: sham-operated mice; test: Food intake after intragastric GABA in sham-operated mice (FIG. 1B); assay type: in vivo; conditions: GABA 200 mg/kg intragastric
Description: as §1

[11] = system: GIP; test: Isomerized sugar-induced GIP secretion, portal plasma ELISA (Example 9, FIG. 13); conditions: GABA 60 mg/kg po with glucose+fructose 1 g/kg each
[12] = system: Healthy C57BL/6J male mice; test: Food intake after intragastric GABA just before feeding in fasted healthy mice (Example 1, FIG. 1A); assay type: in vivo; conditions: GABA solution 20 mg/kg or 200 mg/kg po just before feeding, compared with physiological saline
Description: As experimental animals, C57BL/6J male mice were used. The mice were acclimated to the environment by preliminary rearing for 1 week or more in individual cages in the free-eating and drinking environment at a temperature of 23±2° C., a humidity of 55±10%, a 12 hour light-dark cycle (light period: 7:30 to 19:30). The animal experiment was conducted with approval in accordance with the guidelines of the Committee for Animal Research of Kyoto Prefectural University. […] In each administration, the mice were intragastrically administered (po) a single dose of physiological saline as a control group and GABA (2 mg/kg, 20 mg/kg, 200 mg/kg) as a test group at a dose of 10 ml/kg using a sonde (stainless steel feeding needle). […] The amount of the feed taken is expressed as the cumulative food intake (kcal) or the food intake at each time (kcal) (FIG. 1A). The cumulative food intake (kcal) also includes energy of administered GABA (3.95 kcal/g).

[13] = system: sensory nerve disorder model mice by subcutaneous administration of capsaicin; test: Food intake after intragastric GABA in capsaicin sensory nerve disorder model mice (FIG. 1B); assay type: in vivo; conditions: GABA 200 mg/kg intragastric, capsaicin treatment
Description: as §1

[14] = system: Healthy C57BL/6J male mice; test: Food intake after GABA, enteral nutrient or both 30 minutes before feeding, healthy mice (Example 2, FIG. 2); assay type: in vivo
Description: Saline (40 ml/kg, po), GABA (200 mg/kg, po), EnsureH (40 ml/kg, po, 1.5 kcal/g) which is an enteral nutrient manufactured by Abbott Japan LLC, or EnsureH+GABA (GABA 200 mg/kg in Ensure, 40 ml/kg, po) were administered from 9:15. The mice were fed 30 minutes after administration, and freely fed. […] At 0.5 h or after, the cumulative food intake (kcal) of the forcibly administered solution and the feed taken was shown (FIG. 2).

[15] = system: GIP; test: Glucose-induced GIP secretion, portal plasma ELISA (Example 7, FIG. 10); assay type: in vivo, mice; conditions: GABA (2, 20, 200 mg/kg) with glucose 1 g/kg oral, 15 minutes
[16] = system: human subjects; test: Human test: VAS satiety and appetite, and calorie intake of a lunch box after GABA intake (Example 6); assay type: in vivo; conditions: GABA 100 mg before lunch box, versus placebo
Description: It was examined whether GABA administration also affects the food intake in humans. In 13 human subjects (25 to 43 years old, 5 males and 8 females), changes in the food intake in the presence or absence of GABA administration were confirmed in the following test outline. Specifically, each subject was fasted from 21:00 on the day before the test, and subjective evaluation (satiety, hunger, appetite) was performed by the VAS questionnaire at 12:00 on the test day. Thereafter, a sample (placebo group: dextrin, GABA group: GABA 100 mg) was taken in together with 50 mL of water, and immediately after that, diet (lunch box) was taken. Immediately after diet, at 30 minutes, 60 minutes, and 120 minutes after diet, subjective evaluation (satiety, hunger, appetite) was performed again by the VAS questionnaire, and the remaining amount of a lunch box was photographed to calculate intake kcal.

[17] = system: GLP-1; test: GLP-1 secretion after glucose with or without GABA, portal plasma ELISA (Example 7, FIG. 10); assay type: in vivo, mice; conditions: addition of GABA (2, 20, 200 mg/kg) to glucose 1 g/kg oral, 15 minutes
[18] = system: GLP-1; test: Blood total GLP-1 concentration 30 minutes after intragastric administration (Example 5, FIG. 6); assay type: in vivo, mice
Description: as §2

[19] = GABA addition to enteral nutrients, 30 minutes after administration
[20] = GABA alone, intragastric 40 ml/kg, 30 minutes after administration
[21] = addition of GABA to the liquid food (EnsureH), 30 minutes

O=C(CO)[C@@H](O)[C@H](O)[C@H](O)CO [fructose, reference compound]
food intake [1]: suppressed | GLP-1 secretion ([2]; fructose 1 g/kg po): enhances

glucagon-like peptide-1 (HAEGTFTSDVSSYLEGQAAKEFIAWLVKGR; ends and bridges not checked; UniProt P01275 98-127, looked up) [GLP-1, incretin hormone produced in endocrine L cells]
neural activity of afferent nerves in the hepatic branch of the vagus nerve [3]: significant increase | energy intake ([4]; GLP-1 intravenously to obese patients): reduced

OC[C@H]1O[C@@](CO)(O[C@H]2O[C@H](CO)[C@@H](O)[C@H](O)[C@H]2O)[C@@H](O)[C@@H]1O [sucrose, reference compound]
satiety inducing action (intake inhibitory action) ([5]; sucrose 2 g/kg po alone): not observed

Glucose-dependent insulinotropic polypeptide [GIP]
neural activity of afferent nerves in the hepatic branch of the vagus nerve [3]: does not result in any change | effect of GLP-1 on energy intake ([4]; GIP administered simultaneously with GLP-1): attenuated

[Cl-].[Li+] [lithium chloride]
aversion [6]: induces aversion | preference of saccharin ([6]; conditioning day 6, test day 8): reduced

NCCCC(=O)O [GABA, γ-Aminobutyric acid]
ability to induce the transient satiety or to suppress binge eating on a fasting condition (food intake) [7]: impaired | GIP secretion (blood GIP increase by nutrient) [8, 19]: suppress; also recorded: suppresses | blood GIP concentration [8, 20]: no change | GIP concentration relative to liquid food alone [8, 21]: about ⅓ | afferent vagal activation by nutrient (pERK1/2) ([9]; GABA 200 mg/kg in EnsureH 40 ml/kg po, compared with EnsureH alone): significantly enhances | afferent vagal activity (neuron activities of vagal afferent nerves, nucleus tractus solitarius, area postrema; pERK1/2) ([9]; GABA alone 200 mg/kg po, compared with physiological saline): does not affect | ability to induce the transient satiety or to suppress binge eating on a fasting condition (food intake) [10]: similarly observed | isomerized sugar-induced GIP secretion [11]: suppresses | fasting food intake within 1 hour from the start of diet after fasting ([12]; 16 h fasted): significantly reduced | food intake within 2 hours from the start of diet after fasting ([12]; 16 h fasted): reduces | food intake after 2 hours from the start of eating [12]: not always changed | ability to induce the transient satiety or to suppress binge eating on a fasting condition (food intake) [13]: impaired | eating behavior after the start of eating ([14]; GABA 200 mg/kg po alone 30 minutes before eating, compared with physiological saline): not different | satiety via vagal afferent nerves ([14]; GABA addition to enteral nutrients, 30 minutes before feeding): enhances | food intake reducing effect ([14]; administration of GABA 30 minutes before diet): greatly reduced | glucose-induced GIP secretion [15]: suppresses | feeling of satiety ([5]; GABA 200 mg/kg po taken together with sucrose 2 g/kg po): significantly induces | fructose-induced GLP-1 secretion ([2]; GABA 60 mg/kg po): further enhances | GLP-1 secretion ([2]; further addition of GABA 60 mg/kg po to glucose+fructose 1 g/kg each): enhanced | feeling of satiety (VAS) ([16]; immediately after diet, 30 minutes and 60 minutes after diet): significantly increased | appetite after diet (VAS) [16]: significantly reduced; also recorded: suppressed | calorie intake [16]: significantly low value | feeling of satiety, area under the curve (AUC) [16]: significant increase; also recorded: significantly increased | GLP-1 secretion [17]: does not significantly enhance | GLP-1 secretion (blood GLP-1 increase by nutrient) [18, 19]: increase; also recorded: promotes | blood GLP-1 concentration [18, 20]: no change | GLP-1 concentration relative to liquid food alone [18, 21]: approximately double
